Counter-ions that a name gives are not always drawn.
Experiments:
factor Xa = molecular target: T1, factor Xa (Bos taurus, UniProt P00743); test: Determination of the inhibitory constants for factor Xa (chromogenic substrate Moc-D-Nle-Gly-Arg-pNA, Dixon method); type: biochemical, bovine; conditions: for Ki: bovine factor Xa, 25° C., pH 8.0, average of at least three determinations
T1 construct: purchased Diagnostic Reagents Ltd, Thame, GB
Experimental: Determination of the inhibitory Effect
To determine the inhibitory effect, 200 μl of this buffer (0.05 M 0.154 M NaCl, 5% Ethanol, pH 8.0; contains the inhibitor), 25 μl of substrate (Moc-D-Nle-Gly-Arg-pNA in H2O; Pentapharm Ltd., Basle, Switzerland) and 50 μl of factor Xa (bovine, Diagnostic Reagents Ltd, thame, GB) were incubated at 25° C. After 3 min, the reaction was stopped By adding 25 μl of acetic acid (50%), and the absorption at 405 nm was determined using a Microplate Reader (MR 5000, Dynatech, Denkendorf, Germany). The Ki values were Founder by the Dixon method (boichem. J. 55, 170-171, 1953) by linear regression using a Computer program. The Ki values are the average of at least three determinations. The Thrombin inhibitions was determined in analogy to a method described earlier (Stürzebecher et al., J. Med. Chem. 40, 3091-3099, 1997).

Thrombin = Thrombin (UniProt P00735); test: Determination of the inhibitory constants for thrombin (method of Stürzebecher et al. 1997); type: biochemical
Text: The Ki values are the average of at least three determinations.

T1 sequence (P00743 234-492 limits assumed): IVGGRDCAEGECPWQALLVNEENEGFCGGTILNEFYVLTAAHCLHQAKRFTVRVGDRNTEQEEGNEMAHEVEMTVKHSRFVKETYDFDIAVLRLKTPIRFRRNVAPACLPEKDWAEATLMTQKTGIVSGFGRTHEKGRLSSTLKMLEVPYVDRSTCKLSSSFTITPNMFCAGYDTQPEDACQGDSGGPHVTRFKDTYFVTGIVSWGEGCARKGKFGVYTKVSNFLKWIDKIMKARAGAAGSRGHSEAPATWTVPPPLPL
T1 sequence (P00743 41-180 partner limits assumed): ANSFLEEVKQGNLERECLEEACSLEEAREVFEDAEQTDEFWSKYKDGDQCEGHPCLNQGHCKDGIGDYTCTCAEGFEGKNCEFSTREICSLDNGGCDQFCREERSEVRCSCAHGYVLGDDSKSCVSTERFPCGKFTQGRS

SMILES	selectivity ratio SR (SR = Ki thrombin/Ki factor Xa) (factor Xa)	Ki (factor Xa) [nM]	Ki (Thrombin) [µM]
N=C(N)c1ccc(CNC(=O)[C@H](CCC(=O)O)NC(=O)C(CCc2ccncc2)NS(=O)(=O)Cc2ccc([N+](=O)[O-])cc2)cc1 (stereo partly drawn) [Compound 37]	6250	5.6	35
N=C(N)c1ccc(CNC(=O)[C@H](CCC(=O)O)NC(=O)[C@@H](CCc2ccc(O)cc2)NS(=O)(=O)Cc2ccc(N)cc2)cc1 [Compound 30]	22940	3.4	78
N=C(N)c1ccc(CNC(=O)CNC(=O)[C@@H](CCc2ccccc2)NS(=O)(=O)Cc2ccncc2)cc1 [Compound 14]	45	80	3.6
N=C(N)c1ccc(CNC(=O)[C@H](CCC(=O)O)NC(=O)[C@@H](CCc2ccncc2)NS(=O)(=O)Cc2ccc(O)cc2)cc1 [Compound 33]	27778	3.6	100
N=C(N)c1ccc(CNC(=O)CNC(=O)[C@@H](C/C=C/c2ccccc2)NS(=O)(=O)Cc2ccccc2)cc1 [Compound 58]	3.1	580	1.8
CC(C)(C)OC(=O)CCC[C@H](NC(=O)[C@@H](CCc1ccccc1)NS(=O)(=O)Cc1ccccc1)C(=O)NCc1ccc(C(=N)N)cc1 [Compound 57]	3.5	130	0.46
N=C(N)c1ccc(CNC(=O)[C@H](CO)NC(=O)[C@@H](CCc2ccncc2)NS(=O)(=O)Cc2ccccc2)cc1 [Compound 3a, Bzls-D,L-homoAla(4-Pyr)-Ser-4Amba×2 TFA]	97	9.4	0.91
COC(=O)c1ccc(CS(=O)(=O)NC(CCc2ccncc2)C(=O)NCC(=O)NCc2ccc(C(=N)N)cc2)cc1 (stereo not drawn) [Compound 46]	775	9.8	7.6
N=C(N)c1ccc(CNC(=O)[C@H](CCC(=O)O)NC(=O)[C@@H](CCc2ccc(O)cc2)NS(=O)(=O)Cc2ccc([N+](=O)[O-])cc2)cc1 [Compound 43]	2000	7.5	15
N=C(N)c1ccc(CNC(=O)[C@H](CCC(=O)O)NC(=O)[C@@H](CCc2ccncc2)NS(=O)(=O)Cc2ccc(N)cc2)cc1 [Compound 26]	14705	1.7	25
N=C(N)c1ccc(CNC(=O)CNC(=O)[C@@H](CCc2ccccc2)NCC(=O)O)cc1 [Compound 64]	32	870	28
N=C(N)c1ccc(CNC(=O)CNC(=O)[C@@H](CCc2ccccc2)NS(=O)(=O)Cc2ccccn2)cc1 [Compound 8, 2-PMs-d-homoPhe-Gly-4Amba×2 TFA]	96	51	4.9
N=C(N)c1ccc(CNC(=O)[C@H](CCC(=O)O)NC(=O)[C@@H](CCc2ccc(O)cc2)NS(=O)(=O)Cc2ccccc2)cc1 [Compound 34]	5135	3.7	19
N=C(N)c1ccc(CNC(=O)CNC(=O)[C@@H](CCc2ccccc2)NS(=O)(=O)Cc2ccccc2)cc1 [Compound 11]	7.2	6.5	0.047
N=C(N)c1ccc(CNC(=O)CNC(=O)[C@@H](CCc2ccccc2)NS(=O)(=O)Cc2ccc(O)cc2)cc1 [Compound 32]	105	3.6	0.38
N=C(N)c1ccc(CNC(=O)CNC(=O)C(CCc2ccccn2)NS(=O)(=O)Cc2ccccc2)cc1 (stereo not drawn) [Compound 25]	952	2.1	2
N=C(N)c1ccc(CNC(=O)CNC(=O)[C@@H](CCc2ccc(O)cc2)NS(=O)(=O)Cc2ccc(N)cc2)cc1 [Compound 27]	295	1.9	0.56

— US9090658B2, “Base-substituted benzylamine analogs for use as coagulation factor Xa inhibitors, the production and use thereof” (The Medicines Company (Leipzig) GmbH, priority 2003, dated 2015)
